Results as given in patent US20030134859A1 (SANKYO COMPANY, LIMITED, priority 2000, published 2003).
Where a name gives a salt, the structure may show the parent alone. Read-outs that look alike come from different tables or passages of the source.

Experiments:
leptin production = assay: Enhancing activity for leptin production in adipocytes (ELISA); assay type: cell-based, rat; conditions: leptin concentration as % of control group; for activity at 1 µM / activity at 0.001 µM / activity at 0.01 µM / activity at 0.1 µM: Rattus norvegicus, Adipocyte, read-out: Facilitating activity to produce leptin; for activity at 0.001 µM: 1 nm
Method in brief: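 Collagenase-dispersed epididymal adipocytes from 6-week-old male Wistar Imamichi rats, cultured in DMEM/F-12 (1:1) with test compound at final 1 µM, 100 nM, 10 nM or 1 nM (0.1% DMSO) for 24 h at 37 °C, 5% CO2. Leptin in filtrate measured by ELISA; activity = treated/DMSO-control leptin × 100 (%).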

TNF-α production = assay: Inhibitory activity against cytokine (TNF-α) production in LPS-stimulated RAW264.7 cells; assay type: cell-based, mouse; conditions: 1 μM test compound, LPS 10 ng/mL; for inhibition at 1 µM: Mus musculus
Method in brief: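 Mouse RAW264.7 macrophages (5,000 cells/well) stimulated with 10 ng/mL LPS (final) and treated with test compound at 1 μM final for 15 h at 37 °C. Supernatant mouse TNF-α measured by ELISA; % inhibition = 100−(A−B)/(C−B)×100, using unstimulated and LPS-only controls.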

Structure (SMILES)	activity at 0.1 µM (leptin production; 24 h, 100 nm) [%]	inhibition at 1 µM (TNF-α production; RAW264.7, 15 h) [%]	activity at 1 µM (leptin production; 24 h, 1 μM) [%]	also measured
O=C(Nc1ccc([N+](=O)[O-])cc1)c1cc([N+](=O)[O-])ccc1Cl [Example 23, N-(4-Nitrophenyl)-(2-chloro-5-nitrophenyl)carboxamide]	–	–	–	activity at 1 µM (leptin production; 1 μM, 24 hr): 110%; activity at 0.001 µM (leptin production; 24 hr): 134%; activity at 0.01 µM (leptin production; 10 nm, 24 hr): 138%; activity at 0.1 µM (leptin production; 100 nm, 24 hr): 158%; inhibition at 1 µM (TNF-α production; 15 hr): 24.4%
O=C(Nc1ccc([N+](=O)[O-])cn1)c1cc([N+](=O)[O-])ccc1Cl [Example 24, N-(5-Nitropyridin-2-yl)-(2-chloro-5-nitrophenyl)carboxamide]	–	–	–	activity at 1 µM (leptin production; 1 μM, 24 hr): 144%; activity at 0.001 µM (leptin production; 24 hr): 112%; activity at 0.01 µM (leptin production; 10 nm, 24 hr): 121%; activity at 0.1 µM (leptin production; 100 nm, 24 hr): 143%; inhibition at 1 µM (TNF-α production; 15 hr): 30.1%
O=C(Nc1nc2ccc([N+](=O)[O-])cc2s1)c1cc([N+](=O)[O-])ccc1Cl [Example 34, N-(6-Nitrobenzothiazol-2-yl)-(2-chloro-5-nitrophenyl)carboxamide]	–	–	–	inhibition at 1 µM (TNF-α production; 15 hr): 15.2%
O=C(Nc1nc(-c2cccs2)cs1)c1cc([N+](=O)[O-])ccc1Cl [Example 36, N-[4-(2-Thienyl)thiazol-2-yl)-(2-chloro-5-nitrophenyl)carboxamide]	120	18	–	–
O=C(Nc1nc(-c2ccc3ccccc3c2)cs1)c1cc([N+](=O)[O-])ccc1Cl [Example 42, N-[4-(2-Naphthyl)thiazol-2-yl)-(2-chloro-5-nitrophenyl)carboxamide]	–	18.8	127	–
O=C(Nc1nc(-c2ccc(Cl)c(Cl)c2)cs1)c1cc([N+](=O)[O-])ccc1Cl [Example 43, N-[4-(3,4-Dichlorophenyl)thiazol-2-yl]-(2-chloro-5-nitrophenyl)carboxamide]	112	17.7	111	–
O=C(Nc1cnc2ccccc2c1)c1cc([N+](=O)[O-])ccc1Cl [Example 55, N-(3-Quinolinyl)-(2-chloro-5-nitrophenyl)carboxamide]	113	15.3	–	activity at 0.001 µM (leptin production; 24 h): 116%; activity at 0.01 µM (leptin production; 24 h, 10 nm): 115%
O=C(Nc1ccc(Cl)nc1)c1cc([N+](=O)[O-])ccc1Cl [Example 62, N-(6-Chloropyridin-3-yl)-(2-chloro-5-nitrophenyl)carboxamide]	132	20.5	–	activity at 0.001 µM (leptin production; 24 h): 119%; activity at 0.01 µM (leptin production; 24 h, 10 nm): 115%
Nc1ccc(-c2ccc(NC(=O)c3cc([N+](=O)[O-])ccc3Cl)cc2)cc1 [Example 88, N-[4-(4-Aminophenyl)phenyl]-(2-chloro-5-nitrophenyl)carboxamide mono-hydrochloride]	119	28	115	–
CS(=O)(=O)Nc1ccc(-c2ccc(NC(=O)c3cc([N+](=O)[O-])ccc3Cl)cc2)cc1 [Example 93, N-[4-[4-(Methanesulfonylamino)phenyl]phenyl]-(2-chloro-5-nitrophenyl)carboxamide]	–	15.6	114	–
Cc1ccc(S(=O)(=O)Nc2ccc(-c3ccc(NC(=O)c4cc([N+](=O)[O-])ccc4Cl)cc3)cc2)cc1 [Example 94, N-[4-[4-(4-Toluenesulfonylamino)phenyl]phenyl]-(2-chloro-5-nitrophenyl)carboxamide]	110	34.8	116	–
O=C(Nc1ccc(N2CCCCC2)cc1)c1cc([N+](=O)[O-])ccc1Cl [Example 114, N-[4-(Piperidin-1-yl)phenyl]-(2-chloro-5-nitrophenyl)carboxamide]	–	16.8	–	–
CC(=O)Nc1ccc(-c2ccc(NC(=O)c3cc([N+](=O)[O-])ccc3Cl)cc2)cc1 [Example 118, N-[4-(4-Acetylaminophenyl)phenyl]-(2-chloro-5-nitrophenyl)carboxamide]	127	16.4	134	activity at 0.001 µM (leptin production; 24 h): 114%; activity at 0.01 µM (leptin production; 24 h, 10 nm): 115%
Cc1ccc2nc(NC(=O)c3cc([N+](=O)[O-])ccc3Cl)sc2c1 [Example 141, N-(6-Methybenzothiazol-2-yl)-(2-chloro-5-nitrophenyl)carboxamide]	–	–	–	Inhibitory Activity (%) against TNF-α production (TNF-α production; 15 hr): 15.9%
Cc1ccc(C(=O)Nc2nc3ccc(NC(=O)c4cc([N+](=O)[O-])ccc4Cl)cc3s2)cc1 [Example 149, N-[2-(4-Methylbenzoylamino)benzothiazol-6-yl]-(2-chloro-5-nitrophenyl)carboxamide]	111	18.8	117	–
CCc1ccc(S(=O)(=O)Nc2ccc(NC(=O)c3cc([N+](=O)[O-])ccc3Cl)cc2)cc1 [Example 150, N-[4-(4-Ethylbenzenesulfonylamino)phenyl]-(2-chloro-5-nitrophenyl)carboxamide]	–	16.2	–	–
CC(C)(C)c1cc(NS(=O)(=O)c2ccc(NC(=O)c3cc([N+](=O)[O-])ccc3Cl)cc2)cc(C(C)(C)C)c1O [Example 175, N-[4-[(3,5-di-tert-Butyl-4-hydroxyphenyl)aminosulfonyl]phenyl]-(2-chloro-5-nitrophenyl)carboxamide]	–	15.7	–	–
CCCN(CCC)c1ccc(NC(=O)c2cc([N+](=O)[O-])ccc2Cl)cc1 [Example 182, N-[4-(N,N-Dipropylamino)phenyl]-(2-chloro-5-nitrophenyl)carboxamide]	112	32.8	–	activity at 0.01 µM (leptin production; 24 h, 10 nm): 110%
O=C(Nc1ccc(N2CCN(C(=O)c3ccccc3)CC2)cc1)c1cc([N+](=O)[O-])ccc1Cl [Example 184, N-[4-(4-Benzoylpiperazin-1-yl)phenyl]-(2-chloro-5-nitrophenyl)carboxamide]	123	15	–	activity at 0.01 µM (leptin production; 24 h, 10 nm): 122%
CCCCCCN(CC)c1ccc(NC(=O)c2cc([N+](=O)[O-])ccc2Cl)cc1 [Example 188, N-[4-(N-Ethyl-N-hexylamino)phenyl]-(2-chloro-55 nitrophenyl)carboxamide]	–	24.2	–	activity at 0.001 µM (leptin production; 24 h): 110%
CC(C)(C)OC(=O)Nc1ccc(-c2csc(NC(=O)c3cc([N+](=O)[O-])ccc3Cl)n2)cc1 [Example 190, N-[4-(4-tert-Butoxycarbonylaminophenyl)thiazol-2-yl]-(2-chloro-5-nitrophenyl)carboxamide]	–	33.8	–	–
Nc1ccc(-c2ccc(NC(=O)c3cc([N+](=O)[O-])ccc3Cl)cc2)cc1 [Example 192, N-[4-(4-Aminophenyl)phenyl]-(2-chloro-5-nitrophenyl)carboxamide]	–	–	–	Facilitating activity to produce leptin (leptin production; 1 μM, 24 hr): 112.1%; Facilitating activity to produce leptin (leptin production; 100 nm, 24 hr): 121.7%; activity at 0.01 µM (leptin production; 24 h, 10 nm): 122%; Inhibitory Activity (%) against TNF-α production (TNF-α production; 15 hr, 1 µM): 27.9%
CCCN(CCC)c1ccc(-c2ccc(NC(=O)c3cc([N+](=O)[O-])ccc3Cl)cc2)cc1 [Example 194, N-[4-[4-(N,N-Dipropylamino)phenyl]phenyl]-(2-chloro-5-nitrophenyl)carboxamide]	–	18.4	–	–
CCCCNc1ccc(-c2ccc(NC(=O)c3cc([N+](=O)[O-])ccc3Cl)cc2)cc1 [Example 203, N-[4-[4-(N-Butylamiino)phenyl]phenyl]-(2-chloro-5-nitrophenyl)carboxamide]	–	–	–	Facilitating activity to produce leptin (leptin production; 1 μM, 24 hr): 133.9%; Facilitating activity to produce leptin (leptin production; 10 nm, 24 hr): 134.6%; Facilitating activity to produce leptin (leptin production; 100 nm, 24 hr): 124.8%; Inhibitory Activity (%) against TNF-α production (TNF-α production; 15 hr): 27.1%
CCCNc1ccc(-c2ccc(NC(=O)c3cc([N+](=O)[O-])ccc3Cl)cc2)cc1 [Example 204, N-[4-[4-(N-Propylamino)phenyl]phenyl]-(2-chloro-5-nitrophenyl)carboxamide]	143	32.7	133	activity at 0.01 µM (leptin production; 24 h, 10 nm): 129%
CCNc1ccc(-c2ccc(NC(=O)c3cc([N+](=O)[O-])ccc3Cl)cc2)cc1 [Example 205, N-[4-[4-(N-Ethylamino)phenyl]phenyl]-(2-chloro-5-nitrophenyl)carboxamide]	123	34.9	120	activity at 0.01 µM (leptin production; 24 h, 10 nm): 123%
CCCCCN(CCCC)c1ccc(-c2ccc(NC(=O)c3cc([N+](=O)[O-])ccc3Cl)cc2)cc1 [Example 206, N-[4-[4-(N-Butyl-N-pentylamino)phenyl]phenyl]-(2-chloro-5-nitrophenyl)carboxamide]	112	27.5	119	–
CCN(C)c1ccc(-c2ccc(NC(=O)c3cc([N+](=O)[O-])ccc3Cl)cc2)cc1 [Example 218, N-[4-[4-(N-Ethyl-N-methylamino)phenyl]phenyl]-(2-chloro-5-nitrophenyl)carboxamide]	–	20.3	–	–
